Assay: xn = mol fraction of the nth substance listed
Details: 100 kPa, Liquid; for viscosity: Capillary tube (Ostwald / Ubbelohde) method; for mass density: Vibrating tube method

CCC(C)CO (stereo not given) [2-methyl-1-butanol] + CCCC(C)O
Details	mass density [kg/m3]	viscosity [mPa·s]
288.15 K, x2 = 0	823.35	6.439
288.15 K, x2 = 0.1	822.37	6.154
288.15 K, x2 = 0.2	821.39	5.978
288.15 K, x2 = 0.301	820.41	5.83
288.15 K, x2 = 0.4	819.44	5.687
288.15 K, x2 = 0.5	818.45	5.556
288.15 K, x2 = 0.6	817.47	5.435
288.15 K, x2 = 0.7	816.47	5.323
288.15 K, x2 = 0.8	815.45	5.232
288.15 K, x2 = 0.9	814.4	5.154
293.15 K, x2 = 0	819.64	5.3
293.15 K, x2 = 0.1	818.65	5.034
293.15 K, x2 = 0.2	817.65	4.881
293.15 K, x2 = 0.301	816.65	4.762
293.15 K, x2 = 0.4	815.65	4.649
293.15 K, x2 = 0.5	814.64	4.548
293.15 K, x2 = 0.6	813.63	4.459
293.15 K, x2 = 0.7	812.6	4.377
293.15 K, x2 = 0.8	811.57	4.314
293.15 K, x2 = 0.9	810.5	4.251
298.15 K, x2 = 0	815.85	4.501
298.15 K, x2 = 0.1	814.84	4.249
298.15 K, x2 = 0.2	813.83	4.106
298.15 K, x2 = 0.301	812.81	3.99
298.15 K, x2 = 0.4	811.79	3.882
298.15 K, x2 = 0.5	810.75	3.787
298.15 K, x2 = 0.6	809.72	3.703
298.15 K, x2 = 0.7	808.68	3.625
298.15 K, x2 = 0.8	807.63	3.564
298.15 K, x2 = 0.9	806.54	3.496
303.15 K, x2 = 0	812.12	3.825
303.15 K, x2 = 0.1	811.09	3.585
303.15 K, x2 = 0.2	810.04	3.46
303.15 K, x2 = 0.301	808.98	3.355
303.15 K, x2 = 0.4	807.92	3.253
303.15 K, x2 = 0.5	806.85	3.163
303.15 K, x2 = 0.6	805.78	3.093
303.15 K, x2 = 0.7	804.7	3.028
303.15 K, x2 = 0.8	803.62	2.973
303.15 K, x2 = 0.9	802.49	2.91
308.15 K, x2 = 0	808.29	3.265
308.15 K, x2 = 0.1	807.23	3.047
308.15 K, x2 = 0.2	806.15	2.928
308.15 K, x2 = 0.301	805.06	2.83
308.15 K, x2 = 0.4	803.97	2.735
308.15 K, x2 = 0.5	802.86	2.653
308.15 K, x2 = 0.6	801.76	2.589
308.15 K, x2 = 0.7	800.64	2.53
308.15 K, x2 = 0.8	799.52	2.482
308.15 K, x2 = 0.9	798.36	2.422
313.15 K, x2 = 0	804.41	2.783
313.15 K, x2 = 0.1	803.33	2.586
313.15 K, x2 = 0.2	802.22	2.481
313.15 K, x2 = 0.301	801.08	2.398
313.15 K, x2 = 0.4	799.95	2.317
313.15 K, x2 = 0.5	798.81	2.248
313.15 K, x2 = 0.6	797.67	2.196
313.15 K, x2 = 0.7	796.51	2.151
313.15 K, x2 = 0.8	795.35	2.112
313.15 K, x2 = 0.9	794.14	2.062
318.15 K, x2 = 0	800.47	2.379
318.15 K, x2 = 0.1	799.36	2.199
318.15 K, x2 = 0.2	798.21	2.11
318.15 K, x2 = 0.301	797.03	2.037
318.15 K, x2 = 0.4	795.86	1.968
318.15 K, x2 = 0.5	794.68	1.91
318.15 K, x2 = 0.6	793.49	1.869
318.15 K, x2 = 0.7	792.29	1.835
318.15 K, x2 = 0.8	791.09	1.805
318.15 K, x2 = 0.9	789.84	1.764
323.15 K, x2 = 0	796.47	2.06
323.15 K, x2 = 0.1	795.33	1.898
323.15 K, x2 = 0.2	794.13	1.817
323.15 K, x2 = 0.301	792.91	1.754
323.15 K, x2 = 0.4	791.7	1.696
323.15 K, x2 = 0.5	790.47	1.649
323.15 K, x2 = 0.6	789.24	1.618
323.15 K, x2 = 0.7	788	1.59
323.15 K, x2 = 0.8	786.75	1.56
323.15 K, x2 = 0.9	785.47	1.525
328.15 K, x2 = 0	792.41	1.787
328.15 K, x2 = 0.1	791.24	1.649
328.15 K, x2 = 0.2	789.99	1.578
328.15 K, x2 = 0.301	788.72	1.525
328.15 K, x2 = 0.4	787.46	1.476
328.15 K, x2 = 0.5	786.19	1.44
328.15 K, x2 = 0.6	784.91	1.418
328.15 K, x2 = 0.7	783.62	1.396
328.15 K, x2 = 0.8	782.33	1.371
328.15 K, x2 = 0.9	781	1.346

CCCC(C)O (stereo not given) [pentan-2-ol] + CCCCCO
Details	mass density [kg/m3]	viscosity [mPa·s]
288.15 K, x2 = 0	813.34	5.057
288.15 K, x2 = 0.1	813.91	4.988
288.15 K, x2 = 0.2	814.5	4.929
288.15 K, x2 = 0.298	815.05	4.881
288.15 K, x2 = 0.4	815.6	4.842
288.15 K, x2 = 0.5	816.13	4.806
288.15 K, x2 = 0.601	816.66	4.772
288.15 K, x2 = 0.699	817.15	4.741
288.15 K, x2 = 0.798	817.63	4.714
288.15 K, x2 = 0.901	818.1	4.697
293.15 K, x2 = 0	809.38	4.174
293.15 K, x2 = 0.1	810	4.141
293.15 K, x2 = 0.2	810.63	4.114
293.15 K, x2 = 0.298	811.21	4.095
293.15 K, x2 = 0.4	811.79	4.079
293.15 K, x2 = 0.5	812.36	4.065
293.15 K, x2 = 0.601	812.92	4.054
293.15 K, x2 = 0.699	813.44	4.047
293.15 K, x2 = 0.798	813.95	4.045
293.15 K, x2 = 0.901	814.45	4.044
298.15 K, x2 = 0	805.35	3.398
298.15 K, x2 = 0.1	806.03	3.388
298.15 K, x2 = 0.2	806.7	3.382
298.15 K, x2 = 0.298	807.31	3.377
298.15 K, x2 = 0.4	807.93	3.373
298.15 K, x2 = 0.5	808.54	3.371
298.15 K, x2 = 0.601	809.14	3.377
298.15 K, x2 = 0.699	809.7	3.385
298.15 K, x2 = 0.798	810.24	3.402
298.15 K, x2 = 0.901	810.78	3.434
303.15 K, x2 = 0	801.24	2.82
303.15 K, x2 = 0.1	801.98	2.815
303.15 K, x2 = 0.2	802.7	2.815
303.15 K, x2 = 0.298	803.36	2.819
303.15 K, x2 = 0.4	804.02	2.833
303.15 K, x2 = 0.5	804.67	2.852
303.15 K, x2 = 0.601	805.32	2.875
303.15 K, x2 = 0.699	805.92	2.901
303.15 K, x2 = 0.798	806.5	2.932
303.15 K, x2 = 0.901	807.06	2.974
308.15 K, x2 = 0	797.05	2.336
308.15 K, x2 = 0.1	797.85	2.354
308.15 K, x2 = 0.2	798.63	2.373
308.15 K, x2 = 0.298	799.35	2.392
308.15 K, x2 = 0.4	800.06	2.416
308.15 K, x2 = 0.5	800.76	2.442
308.15 K, x2 = 0.601	801.45	2.472
308.15 K, x2 = 0.699	802.11	2.504
308.15 K, x2 = 0.798	802.74	2.54
308.15 K, x2 = 0.901	803.33	2.587
313.15 K, x2 = 0	792.78	1.99
313.15 K, x2 = 0.1	793.65	2.016
313.15 K, x2 = 0.2	794.49	2.039
313.15 K, x2 = 0.298	795.28	2.063
313.15 K, x2 = 0.4	796.05	2.09
313.15 K, x2 = 0.5	796.8	2.119
313.15 K, x2 = 0.601	797.54	2.152
313.15 K, x2 = 0.699	798.25	2.188
313.15 K, x2 = 0.798	798.92	2.226
313.15 K, x2 = 0.901	799.56	2.272
318.15 K, x2 = 0	788.42	1.706
318.15 K, x2 = 0.1	789.37	1.726
318.15 K, x2 = 0.2	790.29	1.751
318.15 K, x2 = 0.298	791.13	1.778
318.15 K, x2 = 0.4	791.96	1.809
318.15 K, x2 = 0.5	792.77	1.842
318.15 K, x2 = 0.601	793.58	1.878
318.15 K, x2 = 0.699	794.34	1.916
318.15 K, x2 = 0.798	795.06	1.956
318.15 K, x2 = 0.901	795.75	1.997
323.15 K, x2 = 0	783.99	1.472
323.15 K, x2 = 0.1	785.02	1.498
323.15 K, x2 = 0.2	786.01	1.522
323.15 K, x2 = 0.298	786.92	1.546
323.15 K, x2 = 0.4	787.82	1.575
323.15 K, x2 = 0.5	788.69	1.607
323.15 K, x2 = 0.601	789.56	1.642
323.15 K, x2 = 0.699	790.38	1.679
323.15 K, x2 = 0.798	791.17	1.718
323.15 K, x2 = 0.901	791.88	1.762
328.15 K, x2 = 0	779.46	1.306
328.15 K, x2 = 0.1	780.57	1.317
328.15 K, x2 = 0.2	781.64	1.335
328.15 K, x2 = 0.298	782.65	1.359
328.15 K, x2 = 0.4	783.63	1.387
328.15 K, x2 = 0.5	784.57	1.418
328.15 K, x2 = 0.601	785.5	1.45
328.15 K, x2 = 0.699	786.38	1.486
328.15 K, x2 = 0.798	787.22	1.524
328.15 K, x2 = 0.901	787.98	1.564

From the NIST ThermoML archive (doi:10.1021/acs.jced.8b00979)
